test system: not given; assay: not given; settings: not given

SMILES | melting point
CN(c1cc(OCCCS(C)(=O)=O)cc2cc(C3=NCC(CN4CC[S+]([O-])CC4)S3)[nH]c12)S(=O)(=O)c1ccccn1 (stereo not drawn) [Example 323, N-methyl-N-(5-[3-(methylsulfonyl)propoxy]-2-{5-[(1-oxidothiomorpholino)methyl]-4,5-dihydro-1,3-thiazol-2-yl}-1H-indol-7-yl)pyridine-2-sulfonamide] | 107 to 110 °C
CC(=O)N1CCN(CC2CN=C(c3cc4cc(OCCCS(C)(=O)=O)cc(N(C)S(=O)(=O)c5ccccn5)c4[nH]3)S2)CC1 (stereo not drawn) [Example 324, N-{2-{5-[(4-acetylpiperazin-1-yl)methyl]-4,5-dihydro-1,3-thiazol-2-yl}-5-[3-(methylsulfonyl)propoxy]-1H-indol-7-yl}-N-methylpyridine-2-sulfonamide] | 165 to 167 °C
CN(c1cc(OCCCS(C)(=O)=O)cc2cc(C3=NCC(CN4CCN(S(C)(=O)=O)CC4)S3)[nH]c12)S(=O)(=O)c1ccccn1 (stereo not drawn) [Example 325, N-methyl-N-{2-(5-{[4-(methylsulfonyl)piperazin-1-yl]methyl}-4,5-dihydro-1,3-thiazol-2-yl)-5-[3-(methylsulfonyl)propoxy]-1H-indol-7-yl}pyridine-2-sulfonamide] | 151 to 153 °C
CN(c1cccc2cc(C3=NCC(CC(=O)O)S3)[nH]c12)S(=O)(=O)c1ccccn1 (stereo not drawn) [Example 333, (2-{7-[methyl(pyridin-2-ylsulfonyl)amino]-1H-indol-2-yl}-4,5-dihydro-1,3-thiazol-5-yl)acetic acid] | 231 to 233 °C
CN(c1cccc2cc(C3=NCC(CC(N)=O)S3)[nH]c12)S(=O)(=O)c1ccccn1 (stereo not drawn) [Example 334, 2-(2-{7-[methyl(pyridin-2-ylsulfonyl)amino]-1H-indol-2-yl}-4,5-dihydro-1,3-thiazol-5-yl)acetamide] | 206 to 207 °C
CN(c1cccc2cc(C3=NCC(CC(N)=O)S3)[nH]c12)S(=O)(=O)c1ccccn1 (stereo not drawn) [Example 338, 2-(2-{7-[methyl(pyridin-2-ylsulfonyl)amino]-1H-indol-2-yl}-4,5-dihydro-1,3-thiazol-5-yl)acetamide] | 148 to 149 °C
O=S(=O)(c1cccs1)N(c1cccc2cc(C3=NCC(CN4CCOCC4)S3)[nH]c12)C(F)F (stereo not drawn) [Example 346, N-(difluoromethyl)-N-{2-[5-(morpholinomethyl)-4,5-dihydro-1,3-thiazol-2-yl]-1H-indol-7-yl}thiophene-2-sulfonamide] | 185 to 186 °C
CN(c1cc(OC(F)(F)F)cc2cc(C3=NCC(CC(N)=O)S3)[nH]c12)S(=O)(=O)c1cccs1 (stereo not drawn) [Example 384, 2-{2-[7-[methyl(2-thienylsulfonyl)amino]-5-(trifluoromethoxy)-1H-indol-2-yl]-4,5-dihydro-1,3-thiazol-5-yl}acetamide] | 186 to 187 °C

molecular target: T1, GST-hLGK1 (human liver GK) (Homo sapiens, UniProt P35557); assay: Determination of GK activity value (GST-hLGK1, Mant-ATP, capillary electrophoresis); type: biochemical; settings: glucokinase activation; GST-hLGK1, D-glucose, 37° C. for 60 min; concentration at midpoint between maximum activity value and control group activity value
T1 construct: made in house; host or cells: Escherichia coli BL21 (Stratagene), plasmid pGEX6P-2/hLGK1
T1 sequence (P35557 1-464 isoform P35557-3): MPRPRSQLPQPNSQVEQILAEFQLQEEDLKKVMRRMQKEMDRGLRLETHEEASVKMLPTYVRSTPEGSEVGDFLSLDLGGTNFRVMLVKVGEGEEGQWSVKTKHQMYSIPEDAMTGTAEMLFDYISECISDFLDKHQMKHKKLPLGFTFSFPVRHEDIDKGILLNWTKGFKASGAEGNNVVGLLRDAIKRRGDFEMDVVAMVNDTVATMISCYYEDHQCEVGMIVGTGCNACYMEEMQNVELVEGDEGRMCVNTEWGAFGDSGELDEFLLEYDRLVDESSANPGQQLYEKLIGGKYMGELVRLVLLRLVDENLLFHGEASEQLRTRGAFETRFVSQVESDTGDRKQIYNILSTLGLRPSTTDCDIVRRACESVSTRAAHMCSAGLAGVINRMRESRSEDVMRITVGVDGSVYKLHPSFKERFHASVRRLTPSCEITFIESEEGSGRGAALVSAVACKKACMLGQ
Experimental: Plasmid DNA to be used for the expression of a protein (GST-hLGK1) containing GST (Glutathione S-transferase) added to the amino terminal of human liver GK in Escherichia coli was prepared as follows.
BL21 strain (Stratagene) transformed with pGEX6P-2/hLGK1 obtained in Reference Example 1A was cultured with shaking at 37° C. for 14 hr in a 200 ml Erlenmeyer flask containing 50 ml of 100 μg/ml ampicillin-containing LB medium. The culture medium (25 ml) was diluted with 225 ml of 100 μg/ml ampicillin-containing LB medium, and further cultured with shaking at 37° C. for 1 hr in a 1 L Erlenmeyer flask. After culture, the Erlenmeyer flask was cooled on ice, 125 μL of 100 mM isopropyl-thio-β-D-galactopyranoside (IPTG) was added (final concentration 50 μM), and cultured at 17° C. for 20 hr. The culture medium was centrifuged, and the obtained fungus was disrupted by ultrasonication. The object protein (GST-hLGK1) was purified from the supernatant using Glutathione Sepharose 4B (Amersham Biosciences K.K.).
A solution (5 μL) of test compound in 50% dimethyl sulfoxide was added to each well of 384 well black plate (Nalge Nunc International K.K.). Then, a solution ([…]) obtained by diluting GST-hLGK1 obtained in Reference Example 2A with measurement buffer (containing 50 mM HEPES (pH 7.4), 200 mM KCl, 5 mM MgCl2, 2.5 mM DTT and 50 μM 2′-(or-3′)-O—(N-methylanthraniloyl)adenosine 5′-triphosphate (Mant-ATP) (Jena Bioscience GmbH)) to 6 μg/mL was added to each well.
Each well was stood at 37° C. for 10 min, and 25 mM D-glucose solution (10 μL) was added to start the reaction.
Each well after the reaction was stood at 37° C. for 60 min, and the reaction was quenched by adding 25 μL of a quenching solution (containing 200 mM HEPES (pH 7.4), 20 mM MgCl2, 200 mM EDTA, 0.03% Triton-X 100, 0.3% Coating 3 reagent (Caliper Life Sciences, Inc.)).
2′-(or-3′)-O—(N-methylanthraniloyl)adenosine 5′-triphosphate (Mant-ATP, substrate) and Mant-ADP (reaction resultant product) were separated from each well after the reaction by a microchip type capillary electrophoresis apparatus 250 HTS (Caliper Life Sciences, Inc.). The reaction rate [(reaction resultant product peak height)/(reaction resultant product peak height+substrate peak height)×100(%)] was calculated from the ratio of the substrate peak height and reaction resultant product peak height obtained by fluorescence detection (excitation wavelength 355 nm, measurement wavelength 460 nm) and used as the index of GK activity.
As a control group, the reaction rate was calculated in the same manner as above except that “solution in 50% dimethyl sulfoxide (without test compound)” was used instead of “solution of test compound in 50% dimethyl sulfoxide”.
A concentration dependency curve of the test compound was drawn with the percentage obtained by dividing the reaction rate of the well added with the test compound (test compound addition group) by the reaction rate of the control group was taken as the GK activity value of the test compound, and the concentration of the test compound at the midpoint between the maximum activity value of the test compound addition group and the control group activity value is shown as EC50 value.

SMILES | EC50
CN(c1cccc2cc(C3=NCC(CN4CCOCC4)S3)[nH]c12)S(=O)(=O)c1cccs1 (single isomer, unassigned) [Example 274, N-methyl-N-{2-[5-(morpholinomethyl)-4,5-dihydro-1,3-thiazol-2-yl]-1H-indol-7-yl}thiophene-2-sulfonamide] | 81 nM
O=S(=O)(c1cccs1)N(c1cccc2cc(C3=NCC(CN4CCOCC4)S3)[nH]c12)C(F)F (single isomer, unassigned) [Example 348, N-(difluoromethyl)-N-{2-[5-(morpholinomethyl)-4,5-dihydro-1,3-thiazol-2-yl]-1H-indol-7-yl}thiophene-2-sulfonamide] | 44 nM
COCCOc1cc(N(C)S(=O)(=O)c2ccccn2)c2[nH]c(C3=NCC(CN4CC[S+]([O-])CC4)S3)cc2c1 (single isomer, unassigned) [Example 398, N-(5-(2-methoxyethoxy)-2-{5-[(1-oxidothiomorpholino)methyl]-4,5-dihydro-1,3-thiazol-2-yl}-1H-indol-7-yl)-N-methylpyridine-2-sulfonamide] | 210 nM
CN(c1cc(OC(F)(F)F)cc2cc(C3=NCC(CC(N)=O)S3)[nH]c12)S(=O)(=O)c1cccs1 (single isomer, unassigned) [Example 520, 2-{2-[7-[methyl(2-thienylsulfonyl)amino]-5-(trifluoromethoxy)-1H-indol-2-yl]-4,5-dihydro-1,3-thiazol-5-yl}acetamide] | 190 nM
COCCOc1cc(N(C)S(=O)(=O)c2ccccn2)c2[nH]c(C3=NCC(CN4CCS(=O)(=O)CC4)S3)cc2c1 (single isomer, unassigned) [Example 528, N-[2-{5-[(1,1-dioxidothiomorpholino)methyl]-4,5-dihydro-1,3-thiazol-2-yl}-5-(2-methoxyethoxy)-1H-indol-7-yl]-N-methylpyridine-2-sulfonamide] | 260 nM
CN(C)C(=O)CN1CCN(Cc2cnc(-c3cc4cccc(N(C)S(=O)(=O)c5cccs5)c4[nH]3)s2)CC1 [Example 10, N,N-dimethyl-2-{4-[(2-{7-[methyl(2-thienylsulfonyl)amino]-1H-indol-2-yl}-1,3-thiazol-5-yl)methyl]piperazin-1-yl}acetamide ditrifluoroacetate] | 210 nM
CC(=O)N1CCN(Cc2cnc(-c3cc4c(Cl)ccc(N(C)S(=O)(=O)c5cccs5)c4[nH]3)s2)CC1 [Example 191, N-(2-{5-[(4-acetylpiperazin-1-yl)methyl]-1,3-thiazol-2-yl}-4-chloro-1H-indol-7-yl)-N-methylthiophene-2-sulfonamide] | 31 nM
CC(=O)N1CCN(Cc2nnc(-c3cc4cccc(N(C)S(=O)(=O)c5cccs5)c4[nH]3)s2)CC1 [Example 198, N-(2-{5-[(4-acetylpiperazin-1-yl)methyl]-1,3,4-thiadiazol-2-yl}-1H-indol-7-yl)-N-methylthiophene-2-sulfonamide] | 530 nM
CN(c1cccc2cc(C3=NCC(C)(CCN4CCOCC4)S3)[nH]c12)S(=O)(=O)c1cccs1 (stereo not drawn) [Example 200, N-methyl-N-{2-[5-methyl-5-(2-(morpholino)ethyl)-4,5-dihydro-1,3-thiazol-2-yl]-1H-indol-7-yl}thiophene-2-sulfonamide] | 61 nM
CC(=O)N1CCN(CC2CN=C(c3cc4cccc(N(C)S(=O)(=O)c5cccs5)c4[nH]3)S2)CC1 (stereo not drawn) [Example 218, N-(2-{5-[(4-acetylpiperazin-1-yl)methyl]-4,5-dihydro-1,3-thiazol-2-yl}-1H-indol-7-yl)-N-methylthiophene-2-sulfonamide] | 180 nM
CN(c1cccc2cc(C3=NCC(C(C)(C)O)S3)[nH]c12)S(=O)(=O)c1cccs1 (stereo not drawn) [Example 226, N-{2-[5-(1-hydroxy-1-methylethyl)-4,5-dihydro-1,3-thiazol-2-yl]-1H-indol-7-yl}-N-methylthiophene-2-sulfonamide] | 53 nM
CN(c1cccc2cc(-c3ncc(CN4CCN5C(=O)OCC5C4)s3)[nH]c12)S(=O)(=O)c1cccs1 (stereo not drawn) [Example 229, N-methyl-N-(2-{5-[(3-oxotetrahydro[1,3]oxazolo[3,4-a]pyrazin-7(1H)-yl)methyl]-1,3-thiazol-2-yl}-1H-indol-7-yl)thiophene-2-sulfonamide] | 120 nM
CCN(c1cccc2cc(-c3ncc(CN4CCn5cnnc5C4)s3)[nH]c12)S(=O)(=O)c1cccs1 [Example 236, N-{2-[5-(5,6-dihydro[1,2,4]triazolo[4,3-a]pyrazin-7(8H)-ylmethyl)-1,3-thiazol-2-yl]-1H-indol-7-yl}-N-ethylthiophene-2-sulfonamide] | 250 nM

From patent publication US7777047B2, “Indole compound” (Takeda Pharmaceutical Company Limited, priority 2006, dated 2010)
